Experimental data reported in ChEMBL document CHEMBL1149603, “5-Arylidene-2,4-thiazolidinediones as inhibitors of protein tyrosine phosphatases” (Bioorg Med Chem, 2007).
pIC50: −log10 of the molar value.

Assays:
[1] = molecular target: T1, Low molecular weight phosphotyrosine protein phosphatase (Homo sapiens, UniProt P24666); test: Inhibition of human low molecular weight Protein-tyrosine phosphatase IF2
T1 sequence (P24666 whole entry): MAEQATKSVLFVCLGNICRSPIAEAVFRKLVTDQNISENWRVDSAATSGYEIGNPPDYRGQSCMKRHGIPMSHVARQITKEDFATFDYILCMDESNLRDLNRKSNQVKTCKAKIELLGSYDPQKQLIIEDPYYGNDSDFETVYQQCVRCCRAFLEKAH

[2] = molecular target: T1, Low molecular weight phosphotyrosine protein phosphatase; test: Inhibition of human low molecular weight Protein-tyrosine phosphatase IF1
[3] = molecular target: T2, Tyrosine-protein phosphatase non-receptor type 1 (Homo sapiens, UniProt P18031); test: Inhibition of human protein-tyrosine phosphatase 1B
T2 sequence (P18031 whole entry): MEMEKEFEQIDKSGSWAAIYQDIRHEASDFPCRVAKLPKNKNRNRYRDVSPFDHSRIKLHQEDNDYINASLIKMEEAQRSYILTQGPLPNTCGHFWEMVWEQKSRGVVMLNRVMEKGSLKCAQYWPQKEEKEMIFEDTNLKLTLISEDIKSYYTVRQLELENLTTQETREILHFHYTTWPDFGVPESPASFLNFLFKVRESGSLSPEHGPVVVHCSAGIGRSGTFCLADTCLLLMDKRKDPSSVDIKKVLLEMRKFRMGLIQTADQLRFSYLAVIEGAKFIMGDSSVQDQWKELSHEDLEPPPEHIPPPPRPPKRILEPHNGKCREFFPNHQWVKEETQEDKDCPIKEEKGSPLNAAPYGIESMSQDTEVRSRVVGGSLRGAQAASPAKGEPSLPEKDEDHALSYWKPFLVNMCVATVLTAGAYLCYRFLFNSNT

[4] = molecular target: T3, Low molecular weight phosphotyrosine protein phosphatase (Saccharomyces cerevisiae S288c, UniProt P40347); test: Inhibition of Saccharomyces cerevisiae low molecular weight Protein-tyrosine phosphatase Ltp1
T3 sequence (P40347 whole entry): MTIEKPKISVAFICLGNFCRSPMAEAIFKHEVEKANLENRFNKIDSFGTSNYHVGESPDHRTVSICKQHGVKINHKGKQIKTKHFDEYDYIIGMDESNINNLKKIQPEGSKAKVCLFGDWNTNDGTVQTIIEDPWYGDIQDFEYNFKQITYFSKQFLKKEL

[5] = Inhibition of Yersinia Tyrosine-protein phosphatase yopH; parameters: species or system Yersinia sp.
[6] = molecular target: T4, Tyrosine-protein phosphatase non-receptor type 2 (Homo sapiens, UniProt P17706); test: Inhibition of human T cell protein-tyrosine phosphatase; format: cell-based
T4 sequence (P17706 whole entry): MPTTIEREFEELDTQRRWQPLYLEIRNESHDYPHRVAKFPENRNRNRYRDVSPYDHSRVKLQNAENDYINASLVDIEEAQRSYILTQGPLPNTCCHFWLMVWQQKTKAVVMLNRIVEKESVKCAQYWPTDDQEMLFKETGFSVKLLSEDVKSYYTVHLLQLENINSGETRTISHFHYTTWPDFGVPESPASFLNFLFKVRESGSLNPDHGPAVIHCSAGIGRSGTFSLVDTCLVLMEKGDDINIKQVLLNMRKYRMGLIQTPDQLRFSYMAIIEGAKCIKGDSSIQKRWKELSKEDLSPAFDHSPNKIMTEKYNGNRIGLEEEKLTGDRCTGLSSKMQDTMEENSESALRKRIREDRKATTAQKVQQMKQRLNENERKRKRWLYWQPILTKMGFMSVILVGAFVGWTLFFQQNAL

[7] = molecular target: Receptor-type tyrosine-protein phosphatase F (Homo sapiens, UniProt P10586); test: Inhibition of human leukocyte antigen related protein-tyrosine phosphatase
[8] = molecular target: Receptor-type tyrosine-protein phosphatase beta (Homo sapiens, UniProt P23467); test: Inhibition of human protein-tyrosine phosphatase beta
Chain of Receptor-type tyrosine-protein phosphatase beta (P23467 whole entry): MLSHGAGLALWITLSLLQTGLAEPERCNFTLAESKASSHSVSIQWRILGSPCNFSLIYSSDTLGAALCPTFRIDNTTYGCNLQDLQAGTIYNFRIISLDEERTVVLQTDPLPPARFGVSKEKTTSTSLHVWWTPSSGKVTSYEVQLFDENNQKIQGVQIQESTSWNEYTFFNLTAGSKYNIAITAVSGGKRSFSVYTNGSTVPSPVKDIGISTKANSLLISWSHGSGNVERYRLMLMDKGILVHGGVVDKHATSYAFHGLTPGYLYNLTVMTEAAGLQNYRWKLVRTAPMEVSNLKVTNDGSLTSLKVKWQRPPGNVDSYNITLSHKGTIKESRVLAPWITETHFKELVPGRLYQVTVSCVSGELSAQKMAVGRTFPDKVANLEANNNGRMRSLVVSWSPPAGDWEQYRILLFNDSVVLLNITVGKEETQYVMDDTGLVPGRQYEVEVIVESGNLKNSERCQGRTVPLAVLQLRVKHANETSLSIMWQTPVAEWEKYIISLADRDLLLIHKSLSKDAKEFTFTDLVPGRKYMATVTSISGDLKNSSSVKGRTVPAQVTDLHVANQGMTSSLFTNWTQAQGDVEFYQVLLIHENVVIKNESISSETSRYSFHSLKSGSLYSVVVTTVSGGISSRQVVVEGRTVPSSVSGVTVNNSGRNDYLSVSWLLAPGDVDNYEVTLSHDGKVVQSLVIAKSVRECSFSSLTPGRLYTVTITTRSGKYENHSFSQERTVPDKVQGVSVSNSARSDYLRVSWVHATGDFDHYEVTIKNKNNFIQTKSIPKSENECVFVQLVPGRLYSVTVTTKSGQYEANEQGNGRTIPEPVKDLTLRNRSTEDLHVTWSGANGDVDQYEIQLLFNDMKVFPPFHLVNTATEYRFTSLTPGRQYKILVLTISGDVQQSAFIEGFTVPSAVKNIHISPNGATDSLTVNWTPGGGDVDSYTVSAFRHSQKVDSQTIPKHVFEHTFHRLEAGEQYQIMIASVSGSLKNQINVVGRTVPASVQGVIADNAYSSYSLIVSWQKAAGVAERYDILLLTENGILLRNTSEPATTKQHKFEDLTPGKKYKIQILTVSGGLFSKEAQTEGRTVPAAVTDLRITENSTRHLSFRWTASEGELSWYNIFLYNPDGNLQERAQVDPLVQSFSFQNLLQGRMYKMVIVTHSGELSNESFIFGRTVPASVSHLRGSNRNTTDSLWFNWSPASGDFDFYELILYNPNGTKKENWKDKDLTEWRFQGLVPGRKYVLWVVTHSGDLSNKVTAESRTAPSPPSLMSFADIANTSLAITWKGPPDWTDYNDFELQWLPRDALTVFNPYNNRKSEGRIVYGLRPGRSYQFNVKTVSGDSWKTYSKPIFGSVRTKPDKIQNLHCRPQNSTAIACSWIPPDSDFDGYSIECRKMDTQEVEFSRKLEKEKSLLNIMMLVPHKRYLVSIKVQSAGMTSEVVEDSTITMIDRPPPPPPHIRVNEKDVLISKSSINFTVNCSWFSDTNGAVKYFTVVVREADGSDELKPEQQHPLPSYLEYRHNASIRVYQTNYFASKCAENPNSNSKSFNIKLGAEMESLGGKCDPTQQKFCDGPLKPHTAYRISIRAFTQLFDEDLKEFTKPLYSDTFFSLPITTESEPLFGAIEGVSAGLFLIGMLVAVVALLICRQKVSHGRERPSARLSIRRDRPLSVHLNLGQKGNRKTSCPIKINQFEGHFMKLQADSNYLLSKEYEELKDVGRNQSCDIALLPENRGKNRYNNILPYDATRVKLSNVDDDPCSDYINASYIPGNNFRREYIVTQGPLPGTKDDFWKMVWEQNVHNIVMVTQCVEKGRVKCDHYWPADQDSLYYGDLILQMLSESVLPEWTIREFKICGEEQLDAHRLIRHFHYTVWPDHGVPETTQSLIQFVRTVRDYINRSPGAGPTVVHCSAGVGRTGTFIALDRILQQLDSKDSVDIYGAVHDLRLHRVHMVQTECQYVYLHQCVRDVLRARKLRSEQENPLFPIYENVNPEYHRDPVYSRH

Chain of Receptor-type tyrosine-protein phosphatase F (P10586 whole entry): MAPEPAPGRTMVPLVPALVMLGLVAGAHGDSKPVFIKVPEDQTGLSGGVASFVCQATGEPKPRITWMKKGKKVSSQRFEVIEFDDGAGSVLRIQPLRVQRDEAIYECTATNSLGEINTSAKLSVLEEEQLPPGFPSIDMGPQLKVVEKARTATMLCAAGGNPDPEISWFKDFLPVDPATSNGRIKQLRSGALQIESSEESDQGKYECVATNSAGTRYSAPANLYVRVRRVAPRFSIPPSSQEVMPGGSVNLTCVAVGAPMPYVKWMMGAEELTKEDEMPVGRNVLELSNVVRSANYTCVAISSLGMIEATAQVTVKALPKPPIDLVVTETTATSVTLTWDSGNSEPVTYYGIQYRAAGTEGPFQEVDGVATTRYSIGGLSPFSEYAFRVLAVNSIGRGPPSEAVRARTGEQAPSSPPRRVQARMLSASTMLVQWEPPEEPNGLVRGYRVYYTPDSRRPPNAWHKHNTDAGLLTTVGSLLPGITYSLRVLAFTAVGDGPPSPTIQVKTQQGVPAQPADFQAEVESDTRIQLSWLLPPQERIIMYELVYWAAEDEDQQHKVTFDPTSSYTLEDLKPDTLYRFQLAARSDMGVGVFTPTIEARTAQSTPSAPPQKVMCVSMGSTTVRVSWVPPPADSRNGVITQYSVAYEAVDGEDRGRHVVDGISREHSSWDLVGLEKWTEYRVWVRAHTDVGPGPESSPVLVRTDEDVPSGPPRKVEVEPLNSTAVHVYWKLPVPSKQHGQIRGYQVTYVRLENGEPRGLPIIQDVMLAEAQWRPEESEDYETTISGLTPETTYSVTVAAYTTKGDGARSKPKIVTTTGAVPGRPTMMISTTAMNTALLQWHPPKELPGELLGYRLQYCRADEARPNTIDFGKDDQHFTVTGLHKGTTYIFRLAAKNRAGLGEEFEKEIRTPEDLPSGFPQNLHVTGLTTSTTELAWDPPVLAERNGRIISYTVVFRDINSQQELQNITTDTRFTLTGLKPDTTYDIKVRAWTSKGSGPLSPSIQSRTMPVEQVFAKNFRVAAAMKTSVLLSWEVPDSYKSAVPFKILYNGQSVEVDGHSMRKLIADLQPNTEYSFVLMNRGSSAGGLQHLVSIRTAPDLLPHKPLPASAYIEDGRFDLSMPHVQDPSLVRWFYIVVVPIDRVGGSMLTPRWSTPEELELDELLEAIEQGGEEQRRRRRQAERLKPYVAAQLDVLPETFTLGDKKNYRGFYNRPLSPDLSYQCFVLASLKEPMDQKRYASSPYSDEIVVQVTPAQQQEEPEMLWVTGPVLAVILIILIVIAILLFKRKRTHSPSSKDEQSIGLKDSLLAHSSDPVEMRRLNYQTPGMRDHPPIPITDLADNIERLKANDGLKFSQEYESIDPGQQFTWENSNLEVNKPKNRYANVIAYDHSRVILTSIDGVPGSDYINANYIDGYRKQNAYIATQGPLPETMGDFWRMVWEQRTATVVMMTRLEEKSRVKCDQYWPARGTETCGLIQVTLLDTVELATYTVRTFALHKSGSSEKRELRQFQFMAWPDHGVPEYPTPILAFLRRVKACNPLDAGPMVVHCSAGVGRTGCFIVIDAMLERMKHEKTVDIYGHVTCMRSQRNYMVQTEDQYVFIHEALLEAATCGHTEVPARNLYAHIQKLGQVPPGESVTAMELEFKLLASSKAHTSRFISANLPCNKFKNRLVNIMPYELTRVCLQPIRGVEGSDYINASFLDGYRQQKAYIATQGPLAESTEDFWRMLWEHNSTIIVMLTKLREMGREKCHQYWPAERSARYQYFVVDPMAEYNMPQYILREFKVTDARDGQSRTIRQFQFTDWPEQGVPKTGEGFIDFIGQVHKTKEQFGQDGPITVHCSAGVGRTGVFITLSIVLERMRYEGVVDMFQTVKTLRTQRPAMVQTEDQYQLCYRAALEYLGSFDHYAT

pIC50 [1] | pIC50 [2] | pIC50 [3] | pIC50 [4] | pIC50 [5] | pIC50 [6] | pIC50 [7] | pIC50 [8] | SMILES
3.89 | 4.43 | 4.74 | 3.32 |  |  |  |  | O=C(O)c1ccc(CN2C(=O)S/C(=C\c3cccc(Oc4ccccc4)c3)C2=O)cc1
5.25 | 5.60 | 5.80 | 4.82 | 6.52 | 5.89 | 4.57 | 6.40 | O=C(O)c1ccc(CN2C(=O)S/C(=C\c3ccc(OCc4ccccc4)cc3)C2=O)cc1
4.74 | 5.15 | 5.96 | 4.71 |  |  |  |  | O=C(O)c1ccc(CN2C(=O)S/C(=C\c3cccc(OCc4ccccc4)c3)C2=O)cc1
4.04 | 4.92 | 5.19 | 3.83 |  |  |  |  | O=C(O)c1ccc(CN2C(=O)S/C(=C\c3ccc4ccccc4c3)C2=O)cc1
4.58 | 5.04 | 5.59 | 3.41 |  |  |  |  | COc1cc(/C=C2\SC(=O)N(Cc3ccc(C(=O)O)cc3)C2=O)ccc1O
3.95 | 4.07 | 4.99 | 2.86 |  |  |  |  | O=C(O)c1ccc(CN2C(=O)S/C(=C\c3cccc(O)c3)C2=O)cc1
3.86 | 3.91 | 5.26 | 4.00 |  |  |  |  | O=C(O)c1ccc(CN2C(=O)S/C(=C\c3cccc4ccccc34)C2=O)cc1
2.78 | 3.66 | 4.07 | < 3.35 |  |  |  |  | O=C(O)COc1ccc(/C=C2\SC(=O)N(Cc3ccc(C(=O)O)cc3)C2=O)cc1
4.89 | 6.05 | 5.55 | 4.47 | 6.00 | 5.55 |  | 5.96 | O=C(O)c1ccc(CN2C(=O)S/C(=C\c3ccc(Oc4ccccc4)cc3)C2=O)cc1
4.07 | 4.52 | 5.00 | 3.73 |  |  |  |  | O=C(O)c1ccc(CN2C(=O)S/C(=C\c3ccc(O)cc3)C2=O)cc1
